Counter-ions that a name gives are not always drawn.
Biological target: T1, RBL-1 5-lipoxygenase (Rattus norvegicus, UniProt P12527)
T1 construct: 5-Lipoxygenase enzyme was prepared as a 10,000g supernatant from RBL-1 cells; endogenous in cells; host or cells: RBL-1 cells (10,000g supernatant of the homogenate)
T1 sequence (P12527 1-673): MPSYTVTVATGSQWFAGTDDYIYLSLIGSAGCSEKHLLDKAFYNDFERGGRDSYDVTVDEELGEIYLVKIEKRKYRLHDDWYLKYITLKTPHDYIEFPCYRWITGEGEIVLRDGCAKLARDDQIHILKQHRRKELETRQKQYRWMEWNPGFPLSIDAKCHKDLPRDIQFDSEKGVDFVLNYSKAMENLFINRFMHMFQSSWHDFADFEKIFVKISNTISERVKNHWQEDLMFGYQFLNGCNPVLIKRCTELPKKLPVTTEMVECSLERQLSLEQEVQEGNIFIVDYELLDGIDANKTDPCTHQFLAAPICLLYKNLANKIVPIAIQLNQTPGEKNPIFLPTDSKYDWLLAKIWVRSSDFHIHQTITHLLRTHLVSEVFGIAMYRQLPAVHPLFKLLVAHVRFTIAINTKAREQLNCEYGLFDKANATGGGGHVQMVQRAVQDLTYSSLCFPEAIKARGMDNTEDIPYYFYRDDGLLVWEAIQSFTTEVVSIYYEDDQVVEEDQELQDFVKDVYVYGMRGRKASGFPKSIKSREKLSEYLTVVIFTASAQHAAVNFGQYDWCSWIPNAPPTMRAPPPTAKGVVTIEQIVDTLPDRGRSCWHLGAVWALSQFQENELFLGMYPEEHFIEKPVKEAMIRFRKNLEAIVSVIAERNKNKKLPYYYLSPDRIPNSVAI
Experiment: RBL-1 5-lipoxygenase screen
Assay type: biochemical
Conditions: 10,000g supernatant from RBL-1 cells, formation of 5-HETE and 5,12-diHETE; for inhibition at 0.05 µM: compound concentration 0.05 µM; for inhibition at 20 µM: compound concentration 20 µM; for inhibition at 1 µM: compound concentration 1 µM
Method: 1) RBL-1 5-LIPOXYGENASE SCREEN
5-Lipoxygenase enzyme was prepared as a 10,000g supernatant from RBL-1 cells by the method of Jakschik (Jakschik, B.A., F.F. Sun, L.M. Lee, and M.M. Steinhoff, 1980, Biochem. Biophys. Res. Comm. 95, 103). The 10,000g supernatant was diluted with homogenization buffer to the equivaleni of 1.5 -2.5 x 10^7 cells. ml.-' and made 2mM with respect to CaCl2. Aliquots of 0.5ml were then dispensed into tubes, and incubated at 29°C with 5ul ethanol or compound in ethanol at the desired concentration for 2min. Then [1-"C] arachidonic acid was added in buffer to give a final concentration of 6.3uM and 0.2uCi per incubation, and the reaction continued at 29°C for 2 min. The reaction was terminated by adding 1ml of acetone and cooling on ice, 0.5ml of ice-cold saline and 100ul of 2N formic acid were added, and the mixture was extracted with 2 ^x 2ml of chloroform. The extract was stored under N, at -20°C until analysis by chromatography. Activity was measured as the percentage of total radioactivity found in 5-HETE and 5,12-diHETE, and inhibition calculated as the decrease information of the sum of these two species in compound-treated incubates relative to control incubations.

`Cc1ccc(O)c(NCc2cccc(C(F)(F)F)c2)c1` [Example 10, 2-[(3-trifluoromethylphenyl)methyl]amino-4-methylphenol] gave an inhibition at 0.05 µM of 89.5%.

For `Cc1ccc(O)c(NCc2ccc(Br)cc2)c1` [Example 14, 2-[(4-bromophenyl)methyl]amino-4-methyl phenol], the inhibition at 0.05 µM was 64.2%.

For `Cc1ccc(O)c(NCc2ccccc2)c1` [Example 3, 2-Phenylmethyfamino-4-methylphenol], the inhibition at 20 µM was 95.4%.

Work on `Oc1ccc(Cl)cc1NCc1ccccc1` [Example 22, 2-phenylmethylamino-4-chlorophenol] yielded an inhibition at 0.05 µM of 81%.

With `CC(C)c1ccc(O)c(NCc2ccccc2)c1` [Example 20, 2-phenylmethylamino-4-iso-propylphenol] the inhibition at 0.05 µM was 77%.

Compound `COc1ccc(CNc2cc(C)ccc2O)cc1` [Example 7, 2-[(4-methoxyphenyl)methyl]amino-4-methylphenol] has an inhibition at 0.05 µM of 61.7%.

In the case of `Cc1ccc(O)c(NCc2ccc(Cl)c(Cl)c2)c1` [Example 12, 2-[(3,4 dichlorophenyl)methyl]amino-4-methyl phenol], the inhibition at 0.05 µM is reported as 73.7%.

Work on `Cc1ccc(O)c(NCc2ccc(C(C)C)cc2)c1` [Example 26] yielded an inhibition at 0.05 µM of 80%.

In the case of `Cc1ccc(O)c(NCc2ccc(C#N)cc2)c1` [Example 5, 2-[(4-Cyanophenyl)methyl]amino-4-methylphenol], the inhibition at 0.05 µM is reported as 42.8%.

In the case of `Cc1ccc(O)c(N(Cc2ccccc2)Cc2ccccc2)c1` [Example 30, 2-Dibenzylamino-4-methylphenol], the inhibition at 1 µM is reported as 91%.

With `Cc1ccc(O)c(NCc2ccco2)c1` [Example 9, 2-[(2-furyl)methyl]amino-4-methylphenol] the inhibition at 0.05 µM was 31.4%.

For `Cc1ccc(O)c(NCc2ccc(O)cc2)c1` [Example 27, 2-[(4-hydroxyphenyl)methyl]amino-4-methylphenol], the inhibition at 0.05 µM was 12%.

In the case of `CC(C)(C)c1ccc(O)c(NCc2ccccc2)c1` [Example 21, 2-phenylmethylamino-4-tert-butylphenol], the inhibition at 0.05 µM is reported as 35%.

`Cc1ccc(O)c(NC(C)c2ccccc2)c1` (stereo not drawn) [Example 17, 2 -(α -Methylbenzyl)amino -4 -methylphenol] showed an inhibition at 0.05 µM of 34%.

In the case of `Cc1ccc(O)c(NCc2ccc(Cl)cc2)c1` [Example 8, 2-[(4-chlorophenyl)methyl]amino-4-methylphenol], the inhibition at 0.05 µM is reported as 91.4%.

In the case of `Cc1ccc(CNc2cc(C)ccc2O)cc1` [Example 6, 2-[(4-Methylphenyl)methyl]amino-4-methylphenol], the inhibition at 0.05 µM is reported as 93.4%.

Compound `Oc1ccc(Br)cc1NCc1ccccc1` [Example 23, 2-phenylmethylamino-4-bromophenol] has an inhibition at 20 µM of 98%.

With `Cc1ccc(O)c(NCc2cccc(Cl)c2)c1` [Example 15] the inhibition at 0.05 µM was 85%.

`CCc1ccc(O)c(NCc2ccccc2)c1` [Example 24, 2-phenylmethylamino-4-ethylphenol] showed an inhibition at 0.05 µM of 20%.

Compound `Cc1ccc(O)c(NCc2ccc(F)cc2)c1` [Example 11, 2-[(4-fluorophenyl)methyl]amino-4-methyl phenol] has an inhibition at 0.05 µM of 93.2%.

Compound `Cc1ccc(O)c(NCc2cccc(F)c2)c1` [Example 16, 2-[(3-fluorophenyl)methyl]amino-4-methyl phenol] has an inhibition at 0.05 µM of 76%.

With `Cc1ccc(O)c(NCc2ccc([N+](=O)[O-])cc2)c1` [Example 25] the inhibition at 0.05 µM was 80%.

With `Cc1ccc(O)c(NCCc2ccccc2)c1` [Example 28, 2-phenylethylamino-4-methylphenol] the inhibition at 0.05 µM was 86%.

Compound `Cc1ccc(O)c(NCc2cccs2)c1` [Example 13, 2-[(thien-2-yl)methyl]amino-4-methyl phenol] has an inhibition at 0.05 µM of 49.7%.

In the case of `O=C(c1ccccc1)c1cc(NCc2ccccc2)c(O)cc1O` [Example 29, 4-Benzoyl-6-(Phenylmethylamino)resorcinol hydrochloride], the inhibition at 1 µM is reported as 94%.

Reference: patent EP0200345A2, “Anti-allergic or anti-inflammatory substituted (hetero)-aralkylamino-ortho-phenols” (BEECHAM GROUP PLC, priority 1985, dated 1986)
